“And” between values parts separate entries of the source, which are not always exact repeats. Equal values may be shown once. “Also recorded” adds a separate entry of the source.
Columns and labels:
[1] = Phase 1 study: safety; assay type: in vivo, human; details: by treatment period; healthy subjects
[2] = Phase 1 study: endogenous markers of renal function; assay type: in vivo, human
[3] = cited from earlier work
[4] = Phase 1 study: iohexol plasma clearance as marker of GFR; assay type: in vivo, human; details: for Iohexol C0, arithmetic mean (CV%) / Iohexol CLsyst, arithmetic mean (CV%): iohexol iv
[5] = combination treatment versus metformin alone
[6] = metformin alone or with tucatinib, n = 17
[7] = urine 0-24 h, metformin 850 mg oral, alone or with tucatinib, n = 17
[8] = treatment metformin + tucatinib, n = 17

Cc1cc(Nc2ncnc3ccc(NC4=NC(C)(C)CO4)cc23)ccc1Oc1ccn2ncnc2c1 [Tucatinib]
Proportion of subjects who experienced TEAEs [1]: 33.3%
Effect of tucatinib on cystatin C-based eGFR ([2]; tucatinib 300 mg twice daily): unchanged
Patients with adverse event of elevated serum creatinine concentration ([3]; tucatinib arm (with trastuzumab and capecitabine), HER2CLIMB): 13.9%
Patients with increased creatinine as a laboratory abnormality ([3]; tucatinib arm, all grade 1 or 2): 33%
Effect of tucatinib on metformin Cmax (tucatinib 300 mg twice daily coadministered with metformin 850 mg): no effect
Effect of tucatinib on GFR (iohexol clearance) ([4]; tucatinib 300 mg twice daily): unchanged; also recorded: unaffected

CN(C)C(=N)N=C(N)N [Metformin]
Proportion of subjects who experienced TEAEs [1]: 38.9%
Mean eGFR derived from cystatin C, 12 hours postdose [2, 5]: 97.9 mL/min/1.73 m^2
Mean eGFR derived from cystatin C, premetformin dose [2, 5]: 101.4 mL/min/1.73 m^2
Mean CrCl 24 hours postdose ([2]; day 2 (after metformin alone) versus day 9 (in the presence of tucatinib)): 152.3 mL/min
Mean cystatin C concentration prior to metformin dosing ([2]; metformin alone (day 1) versus tucatinib coadministration (day 8)): 0.846 mg/L
Mean cystatin C concentration 12 hours postmetformin dosing ([2]; metformin alone versus metformin and tucatinib): 0.881 mg/L
Tmax (human, plasma, oral, 850 mg): 1.5 to 4 h
Cmax (human, plasma, po, 850 mg): 1300 ng/mL
Metformin CLrenal, arithmetic mean (CV%) (metformin 850 mg oral, alone or with tucatinib 300 mg twice daily, n = 17): 30.0 (27.0) L/h
Metformin CL/F, geometric LSM [6]: 102.0 L/h
Metformin VzF, geometric LSM [6]: 664.7 L
Ae0‐24, amount of metformin excreted unchanged in urine, arithmetic mean (CV%) [7]: 242.6 (26.5) mg
Fe0‐24, cumulative fraction of metformin excreted unchanged in urine, arithmetic mean (CV%) [7]: 28.54% and 28.5 (26.5) %
GFR, arithmetic mean (CV%) ([4]; calculated from iohexol plasma clearance, n = 17): 94.99 (17.4) mL/min/1.73 m^2

CC(=O)N(CC(O)CO)c1c(I)c(C(=O)NCC(O)CO)c(I)c(C(=O)NCC(O)CO)c1I (stereo not drawn) [Iohexol]
Iohexol C0, arithmetic mean (CV%) [4, 8]: 178.5 (21.5) µg/mL
Iohexol CLsyst, arithmetic mean (CV%) [4, 8]: 129.0 (22.0) mL/min
Iohexol C0, arithmetic mean (CV%) ([4]; treatment metformin, n = 17): 175.6 (18.0) µg/mL
Iohexol CLsyst, arithmetic mean (CV%) ([4]; treatment metformin, n = 17): 129.8 (22.7) mL/min
